# Paper PMC9887927, “Biochemical characterization and insights into the potency of the acidic Aspergillus niger NRC114 purified α-galactosidase in removing raffinose family oligosaccharides from soymilk yogurt” (BMC Biotechnology, 2023)
# Tested on: T1, Aspergillus niger NRC114 α-galactosidase
# T1 construct: gene aglB; native secreted enzyme purified from culture filtrate (ammonium sulfate, Sephadex G-100, DEAE-Sephadex A-50); 64 kDa monomer by SDS-PAGE
# Test: p-nitrophenol release, absorbance; Lineweaver-Burk plot
# Type: biochemical
# Settings: pH 3.5, 60 °C; substrate range printed as 0.04–0.8 µM; printed unit doubtful (probably mM: compared with mM literature values, assay stock 4 mM)
compound,measurement,value
O=[N+]([O-])c1ccc(O[C@H]2O[C@H](CO)[C@H](O)[C@H](O)[C@H]2O)cc1 [p-nitrophenyl-α-D-galactopyranoside],Km,0.000401 mM
